From patent US8536158B2, “Compounds having CRTH2 antagonist activity” (Atopix Therapeutics Limited, priority 2008, dated 2013)

Key:
CRTH2 receptor = CRTH2 receptor (Homo sapiens (Human), UniProt Q9Y5Y4); experiment: [3H]PGD2 radioligand binding assay on CHO/CRTH2 cell membranes; conditions: for Ki: [3H]PGD2, CHO/CRTH2 membranes
Procedure: Chinese Hamster Ovary cells were transfected with CRTH2 or DP receptors (CHO/CRTH2 and CHO/DP) and were maintained in culture in a humidified atmosphere at 37° C. (5% CO2) in Minimum Essential Medium (MEM) supplemented with 10% foetal bovine serum, 2 mM glutamine, and 1 mg ml^−1 active G418. The cells were passaged every 2-3 days. For radioligand binding assay, cells were prepared in triple-layer flasks or in 175 cm^2 square flasks (for membrane preparation).
Membranes were prepared either from CHO/CRTH2 and CHO/DP cells, or from platelets (as a source of TP receptors). CHO cells grown to confluency were washed with PBS and detached using a Versene solution (15 ml per flask). When the cells were grown in 175 cm^2 square flask, they were collected by scrapping in PBS. The cell suspensions were centrifuged (1,700 rpm, 10 min, 4° C.) and resuspended in 15 ml of buffer (1×HBSS, supplemented with 10 mM HEPES, pH 7.3). Cell suspensions were then homogenised using an Ultra Turrax at setting 4-6 for 20 s. The homogenate was centrifuged at 1,700 rpm for 10 min and the supernatant was collected and centrifuged at 20,000 rpm for 1 h at 4° C. The resulting pellet was resuspended in buffer and stored at −80° C. in aliquots of […] The protein concentration was determined by the method of Bradford (1976), using bovine serum albumin as standard. The platelets were washed by centrifugation at 600×g for 10 min and resuspended in ice-cold assay buffer (10 mM Tris-HCl, pH 7.4, 5 mM Glucose, 120 mM NaCl, 10 μM indomethacin) and directly centrifuged at 20,000 rpm for 30 min at 4° C. The resulting pellet was treated as described above.
[^3H]PGD2 (160 Ci/mmol) binding experiments were performed on membranes prepared as described above. Assays were performed in a final volume of 100 μl of buffer (1×HBSS/HEPES 10 mM, pH 7.3). Cell membranes (15 μg) were preincubated at room temperature with varying concentration of competing ligand for 15 min. [^3H]PGD2 was then added and the incubation continued for a further one hour at room temperature. The reaction was terminated by the addition of 200 μl ice-cold assay buffer to each well, followed by rapid filtration through Whatman GF/B glass fibre filters using a Unifilter Cell harvester (PerkinElmer Life Sciences) and six washes of 300 μl of ice-cold buffer. The Unifilter plates were dried at room temperature for at least 1 h and the radioactivity retained on the filters was determined on a Beta Trilux counter (PerkinElmer Life Sciences), following addition of 40 μl of Optiphase Hi-Safe 3 (Wallac) liquid scintillation. Non specific binding was defined in the presence of 10 μM unlabelled PGD2. Assays were performed in duplicate.

[1] = system: eosinophils in human whole blood; experiment: Human whole blood eosinophil shape change assay (PGD2-induced); assay type: cell-based; conditions: for IC50: Eosinophil, 10 nM PGD2, human whole blood, read-out: IC50 for effect on 10 nM PGD2-induced eosinophil shape change in human whole blood
Procedure: Compounds 1-3 were assayed for their effect on PGD2 induced eosinophil shape change and were compared with Comparator Compounds A, B and D.
Compounds (1 μl, 200× final concentration) were added directly to 200 μl whole blood, mixed well and incubated for 15 min, 37° C., 5% CO2. After this time, cell shape was fixed by addition of 300 μl Cytofix™ buffer (BD Biosciences), 15 min on ice. 10 ml RBC lysis buffer was added to the fixed cells, incubated 5 min, at room temperature and centrifuged, 300×g for 5 min. Supernatant (containing lysed red cells) was removed and the lysis step was repeated. Leukocytes were resuspended in 250 μl RPMI/10% FCS and shape change analysed by FACS. Eosinophils were gated out based on their autofluorescence and 2000 eosinophil events were counted per sample. Data were analysed in triplicate.

Microsomal stability = assay type: in vitro ADME, human; conditions: for Mean Parent remaining (%): 1 x 10^-6 M test compound, human liver microsomes 0.3 mg/ml, mean of two experiments; for unmetabolised in human liver microsomes: text states
Procedure: The percentage of the test compound remaining in the sample after 1 hour was measured in order to determine the rate of metabolism of test compound. The results are shown in Table 3, which gives the results for two experiments and the mean value obtained.

[2] = In vivo pharmacokinetic profile in the dog; conditions: plasma

Chain of CRTH2 receptor (Q9Y5Y4 whole entry): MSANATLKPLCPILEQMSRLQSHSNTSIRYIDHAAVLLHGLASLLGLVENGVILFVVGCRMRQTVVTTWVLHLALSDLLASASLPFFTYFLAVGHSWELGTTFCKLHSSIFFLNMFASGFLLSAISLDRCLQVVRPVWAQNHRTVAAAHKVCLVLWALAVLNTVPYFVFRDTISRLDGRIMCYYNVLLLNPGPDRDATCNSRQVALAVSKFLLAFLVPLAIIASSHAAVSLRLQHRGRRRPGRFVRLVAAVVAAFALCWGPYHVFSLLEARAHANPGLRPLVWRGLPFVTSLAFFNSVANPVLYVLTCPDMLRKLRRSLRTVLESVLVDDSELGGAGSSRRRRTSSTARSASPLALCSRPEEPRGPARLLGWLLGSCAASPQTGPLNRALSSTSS

| Ki (CRTH2 receptor) [nM] | IC50 [1] [nM] | Mean Parent remaining (%) (Microsomal stability) | unmetabolised in human liver microsomes (Microsomal stability) [%] | half-life [2] [h] | binding to the CRTH2 receptor (in words) (CRTH2 receptor) | stability in human microsomes (in words) (Microsomal stability; human microsomes) | SMILES | CRTH2 antagonist potency under physiological conditions (in words) ([1]; eosinophil shape change test, whole blood) | half-life ([2]; oral) [h] |
| --- | --- | --- | --- | --- | --- | --- | --- | --- | --- |
| 1 | 34 | 69 | 69 |  |  |  | Cc1c(Cc2ccncc2S(=O)(=O)c2ccccc2)c2cc(F)ccc2n1CC(=O)O [Compound B, [3-(3-Benzenesulfonyl-pyridin-4ylmethyl)-5-fluoro-2-methyl-indol-1-yl]-acetic acid] | not a particularly potent CRTH2 antagonist |  |
|  | 2.5 | 98 | 98 | 5 |  |  | Cc1c(Cc2cccnc2S(=O)(=O)c2ccc(F)cc2)c2cc(F)ccc2n1CC(=O)O [Compound 2, [5-Fluoro-3-({2-[(4-fluorobenzene)sulfonyl]pyridin-3-yl}methyl)-2-methylindol-1-yl]-acetic acid] |  |  |
| 258 |  |  |  |  | bind only very weakly |  | Cc1c(Cc2cccnc2)c2cc(F)ccc2n1CC(=O)O [Compound E] |  |  |
| 7 | 8 |  |  |  |  |  | Cc1c(Cc2ccc(S(C)(=O)=O)cc2)c2cc(F)ccc2n1CC(=O)O [Compound A, [3-(4-Methylsulfonyl-benzyl)-5-fluoro-2-methyl-indol-1-yl]-acetic acid] |  | 1 |
| 979 |  | 90 | 90 |  | bind only very weakly |  | Cc1c(Cc2ncccc2S(=O)(=O)c2ccccc2)c2cc(F)ccc2n1CC(=O)O [Compound C, [3-(3-Benzenesulfonyl-pyridin-2-ylmethyl)-5-fluoro-2-methyl-indol-1-yl]-acetic acid] |  |  |
|  | 10 |  |  |  |  |  | Cc1c(Cc2cccnc2S(=O)(=O)c2ccc(Cl)cc2)c2cc(F)ccc2n1CC(=O)O [Compound 3, [3-({2-[(4-Chlorobenzene)sulfonyl]pyridin-3-yl}methyl)-5-fluoro-2-methylindol-1-yl]-acetic acid] |  |  |
|  | 8 | 24 | 24 |  |  | low stability | Cc1c(Cc2cccn2S(=O)(=O)c2ccccc2)c2cc(F)ccc2n1CC(=O)O [Compound D, [3-(1-Benzenesulfonyl-1H-pyrrol-2-ylmethyl)-5-fluoro-2-methyl-indol-1-yl]-acetic acid] |  |  |

| SMILES | Ki (CRTH2 receptor) [nM] | IC50 [1] [nM] | Mean Parent remaining (%) (Microsomal stability) | unmetabolised in human liver microsomes (Microsomal stability) [%] | half-life [2] [h] | binding to the CRTH2 receptor (in words) (CRTH2 receptor) | stability in human microsomes (in words) (Microsomal stability; human microsomes) | CRTH2 antagonist potency under physiological conditions (in words) ([1]; eosinophil shape change test, whole blood) | half-life ([2]; oral) [h] |
| --- | --- | --- | --- | --- | --- | --- | --- | --- | --- |
| Cc1c(Cc2cccnc2S(=O)(=O)c2ccccc2)c2cc(F)ccc2n1CC(=O)O [Compound 1, (3-{[2-(Benzenesulfonyl)pyridin-3-yl]methyl}-5-fluoro-2-methylindol-1-yl)-acetic acid] | 2 | 9 | 96 | 96 |  |  |  |  | 3 |
